One assay deals with A2780/CP70 cells. Briefly: MTT cell proliferation assay, A2780/CP70 ovarian cancer cells. Particulars: A2780/CP70, apigenin alone, 24 h. In kind it is cell-based, human. How it is done:
(§1) FIG. 1. […] (A) A2780/CP70 cells and human fibroblast GM847 cells were seeded in 96-well plate at 4×10^3 cells per well and incubated overnight. […] The cells were incubated for 24 h. Cell proliferation was determined by MTT reduction. […] Cells were trypsinized, harvested, washed once with PBS buffer, and stained using the Annexin-V-Folus Kit as per the manufacture's instructions. […] After incubation, all cells were collected and total DNA was isolated. Eight (8) μg of DNA was resolved on 1.8% agarose gel. […] (D) Treatment of GM847 cells was the same as that of 5D. […] Cleavage of caspase-3 and PARP was detected by western-blot.
FIG. 3. […] A2780/CP70 cells were seeded in 96-well plates and incubated overnight. The old medium was discarded and fresh medium with cisplatin (CDDP) in the presence or absence of apigenin (Api) was added. In 24 h, the cell proliferation was determined by means of MTT reduction method.
FIG. 9. […] A, Cisplatin-resistant ovarian cancer cell line A2780/CP70, and B, prostate cancer cells PC-3 were seeded in 96-well plates at 1×10^4 cells/well and incubated overnight. […] In 24 h, the cell proliferation was assayed by using a MTT assay kit. *indicates significant difference compared to cisplatin alone (p<0.01).
In general terms: Tetrazolium dyes change colour on reduction, which living cells bring about.

Another assay deals with DU145 cells. Briefly: MTT cell proliferation assay, DU145 prostate cancer cells. In kind it is cell-based, human. The conditions noted are these: 24 h. Here is the method:
FIG. 8. […] Prostate cancer cells PC-3 and DU145 were seeded in 96-well plates at 1×10^4 cells/well. […] The cell proliferation was assayed by culturing the cells for 24 h, then adding 10 μl of MTT reagent with incubation for 2 h. The reaction was stopped by adding 100 μl of solubilization solution. The relative cell proliferation was obtained by the reading at 590 nm which was recorded in a spectrophotometer, and normalized to the value of control.
(§2) FIG. 17. […] A, the prostate cancer cells PC-3 and DU145; B, colon cancer cells Colo-205 and HCT-116; C, lung cancer cells A549 and H460 cells were plated at 1×10^4 cells per well in a 96 well plate in 100 μl of media.
FIG. 19. […] A, prostate cancer cells PC-3; and B, DU145 cells were plated at 1×10^4 cells per well in a 96 well plate in 100 μl of media. […] Cell proliferation was examined by MTT assay.
FIG. 21. […] A, the prostate cancer cells PC-3 and DU145; B and C, colon cancer cells Colo-205 and HCT-116 were plated at 1×10^4 cells per well in a 96 well plate in 100 μl of media a day before the treatment.
FIG. 23. […] Cell proliferation was examined by MTT assay.

Another assay relates to HCT-116 cells. In words: MTT cell proliferation assay, HCT-116 colon cancer cells. Type of assay: cell-based, human. Particulars: HCT-116, apigenin alone, 24 h. Here is the method:
as §2

The test system of a further assay is A549 cells. Briefly: MTT cell proliferation assay, A549 lung cancer cells. Type of assay: cell-based, human. Particulars: A549, apigenin alone, 24 h. How it is done:
as §2

The test system of the next assay is normal human cells. Briefly: Apoptosis of normal human cells (GM847 fibroblasts). In kind it is cell-based. Particulars: at up to 40 μM apigenin. Here is the method:
as §1

Assay [1] concerns human fibroblast GM847 cells. In words: MTT proliferation, human fibroblast GM847 cells. Type of assay: cell-based. The conditions noted are these: same experimental conditions as cancer cells, 24 h. Here is the method:
as §1

The test system of assay [2] is tumors induced by A2780/CP70 cells. Briefly: Tumor weight of A2780/CP70 tumors on CAM. The conditions noted are these: 10 μM apigenin or 2.5 μM CDDP+10 μM apigenin, 10 days. Type of assay: in vivo, chicken embryo. Here is the method:
FIG. 4. […] The A2780/CP70 cells were seeded into 100 mm dish and grown to 90-100% confluence. […] In 10 days, the tumors were harvested and weighed. The blood vessel numbers of the tumor were counted under×100. At least five areas were determined. The data are mean±SD from two experiments (n=8). A, representative tumor morphology; B, tumor weight; C, relative numbers of blood vessels.

In the next assay the test system is A2780/CP70 tumors. In words: Secondary tumor growth in chicken embryos. The conditions noted are these: 7.5 μM apigenin, 9 days. In kind it is in vivo, chicken embryo. Here is the method: FIG. 2. […] Ovarian cancer cells A2780/CP70 were planted into 9-days old fertilized chicken embryos and incubated for 9 days to allow the tumor formation. The formed tumors were harvested and cut into pieces of 9-10 mg weight, and immediately implanted into another 9-day old fertilized chicken embryo and incubated for 9 days. […] In 9 days, the secondary tumor was cut and weighed.

Assay [3] concerns HIF-1 expression in OVCAR-3 cells. In words: HIF-1 immunoblotting, OVCAR-3. In kind it is cell-based, human. An excerpt: FIG. 5. […] The cells treated with solvent alone were used as a control. HIF-1α and HIF-1β protein levels were detected by immunoblotting as described in Materials and Methods. GAPDH was used as an internal control to test the loading and transfer efficiency.
Background: In western blotting, separated proteins are transferred to a membrane and probed.

In assay [4] the test system is VEGF expression in OVCAR-3 cells. Briefly: VEGF ELISA of supernatants, OVCAR-3. In kind it is cell-based, human. The conditions noted are these: OVCAR-3, 15 h. Here is the method: (§3) FIG. 6. […] OVCAR-3 and A2780/CP70 cells were plated in 12-well plates and cultured to 90% confluence. […] The concentrations of VEGF in the supernatants were determined by ELISA method as described in Materials and Methods. The data are mean±SE from three independent experiments and each experiment was performed with triplicate cultures.
Background: An ELISA detects its analyte on a solid surface through an enzyme-linked reagent.

In assay [5] the test system is VEGF expression in A2780/CP70 cells. Briefly: VEGF ELISA of supernatants, A2780/CP70. In kind it is cell-based, human. Particulars: A2780/CP70, 15 h. How it is done:
as §3

Assay [6] deals with VEGF transcriptional activity in A549 cells. In words: VEGF reporter luciferase assay in A549. Type of assay: cell-based, human. Particulars: A549, 5, 10, and 20 μM, 24 h. Here is the method:
FIG. 13. […] A549 cells were seeded on a six-well plate. When they reached 60 to 70% confluence, the cells were transfected using Lipofectamine reagent. A, A549 cells were cotransfected with 1 μg of pGL-StuI VEGF reporter and 0.3 μg of β-gal plasmid as described. […] Cells were then lysed and the supernatants were used to assay Luc and β-gal activities. The relative luciferase activities in the cell extracts were assayed by the ratio of Luc/β-gal activity and normalized to the value in the solvent DMSO control. B, cells were cotransfected with 1 μg of pMAP11wt VEGF reporter and 0.3 μg of β-gal plasmid as described. Cells were treated with different doses of apigenin as described above. C, the cells were transfected with pMAP11mut VEGF reporter (with 3-bp substitution of pMAP11wt), and treated as above “B”.

The next assay has as its system endothelial cells. In words: Tube formation in vitro. In kind it is cell-based.

Turning to `O=c1cc(-c2ccc(O)cc2)oc2cc(O)cc(O)c12` [apigenin, 4′,5,7,-trihydroxyflavone], the “effect on cell proliferation” value is “inhibited cell proliferation” with A2780/CP70 cells; “inhibited” with DU145 cells (DU145, apigenin alone); “inhibited the proliferation” with HCT-116 cells; “inhibited the proliferation” in the assay on A549 cells. Moreover, in the assay on DU145 cells (DU145, 15 μM apigenin), the “effect on sensitivity to etoposide treatment” value is on record as “increased the sensitivity”. Besides, in the assay on normal human cells, the “induction of apoptosis of normal human cells” value is given as “did not induce apoptosis”. Moreover, in [1], the “effect on human normal fibroblast cells” value is reported as “little effects”. Further, the “inhibition of tumor growth” value in assay [2] is on record as 40%. In addition, the “effect on tumor growth (secondary tumor weight)” value with A2780/CP70 tumors is given as “inhibited tumor growth”. For the same compound, the “effect on HIF-1 expression” value in assay [3] is on record as “inhibited HIF-1 expression”. Besides, the “effect on expression of VEGF” value in assay [4] and in assay [5] was “inhibited the expression of VEGF” throughout. Further, in assay [6], the “effect on VEGF transcriptional activation” value is “dramatically suppresses”. The “effect on tube formation” value in the assay on endothelial cells is “inhibited tube formation”.

These data come from patent US8377918B2 (ACC Therapeutics Inc, priority 2005, dated 2013).
